Activity calls are given as the source filed them. The calls are words filed in the database; no cut-off is given here.
What was measured:
[1] = target: T1, Cyclin-dependent kinase 9 (Homo sapiens, UniProt P50750); assay: Inhibition of CDK9 (unknown origin)
[2] = target: Mitogen-activated protein kinase 3 (Homo sapiens) (UniProt P27361); assay: Inhibition of ERK1 (unknown origin) at <1 uM using MBP as substrate preincubated for 5 mins followed by substrate addition measured after 60 mins in presence of [gamma33P]ATP by scintillation counter method
Sequence of Mitogen-activated protein kinase 3 (Homo sapiens) (P27361 whole entry): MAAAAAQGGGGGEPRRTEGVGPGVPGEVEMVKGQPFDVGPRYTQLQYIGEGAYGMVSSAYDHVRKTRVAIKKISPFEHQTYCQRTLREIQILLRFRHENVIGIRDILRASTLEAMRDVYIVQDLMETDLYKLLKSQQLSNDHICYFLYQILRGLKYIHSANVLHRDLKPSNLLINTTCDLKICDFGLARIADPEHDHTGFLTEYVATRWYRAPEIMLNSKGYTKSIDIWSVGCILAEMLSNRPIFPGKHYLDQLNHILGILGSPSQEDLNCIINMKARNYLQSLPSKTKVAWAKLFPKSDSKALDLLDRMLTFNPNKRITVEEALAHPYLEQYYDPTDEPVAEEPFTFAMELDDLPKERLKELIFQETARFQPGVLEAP

[3] = target: T1, Cyclin-dependent kinase 9; assay: Inhibition of CDK9 (unknown origin) at 1 uM relative to control
[4] = target: Vascular endothelial growth factor receptor 2 (Homo sapiens) (UniProt P35968); assay: Inhibition of VEGFR2 (unknown origin) at <1 uM using biotinylated poly[Glu:Tyr] (4:1) as substrate pretreated for 5 mins followed by substrate addition measured after 10 mins by Alphascreen assay
[5] = target: Proto-oncogene tyrosine-protein kinase Src (Homo sapiens) (UniProt P12931); assay: Inhibition of SRC (unknown origin) at <1 uM using biotinylated poly[Glu:Tyr] (4:1) as substrate pretreated for 5 mins followed by substrate addition measured after 10 mins by Alphascreen assay
[6] = target: Casein kinase I isoform delta (Homo sapiens) (UniProt P48730); assay: Inhibition of CK1delta (unknown origin) at 1 uM using CK1tide as substrate preincubated for 5 mins followed by substrate addition measured after 20 mins in presence of [gamma33P]ATP by scintillation counter method relative to control
[7] = target: Insulin receptor (Homo sapiens) (UniProt P06213); assay: Inhibition of IRK (unknown origin) at <1 uM using biotinylated poly[Glu:Tyr] (4:1) as substrate pretreated for 5 mins followed by substrate addition measured after 60 mins by Alphascreen assay
[8] = target: Mitogen-activated protein kinase kinase kinase 19 (Homo sapiens) (UniProt Q56UN5); assay: Binding affinity to partial length wild-type human YSK4 (T1019 to H1328 residues) expressed in bacterial expression system assessed as unbound drug level at 300 nM by KINOMEscan assay
[9] = target: Homeodomain-interacting protein kinase 2 (Homo sapiens) (UniProt Q9H2X6); assay: Binding affinity to partial length wild-type human HIPK2 (M153 to S564 residues) expressed in mammalian expression system assessed as unbound drug level at 300 nM by KINOMEscan assay
[10] = target: Serine/threonine-protein kinase PLK1 (Homo sapiens) (UniProt P53350); assay: Inhibition of PLK1 (unknown origin) at 1 uM using alpha-casein as substrate preincubated for 5 mins followed by substrate addition measured after 60 mins in presence of [gamma33P]ATP by scintillation counter method relative to control
Sequence of Serine/threonine-protein kinase PLK1 (Homo sapiens) (P53350 whole entry): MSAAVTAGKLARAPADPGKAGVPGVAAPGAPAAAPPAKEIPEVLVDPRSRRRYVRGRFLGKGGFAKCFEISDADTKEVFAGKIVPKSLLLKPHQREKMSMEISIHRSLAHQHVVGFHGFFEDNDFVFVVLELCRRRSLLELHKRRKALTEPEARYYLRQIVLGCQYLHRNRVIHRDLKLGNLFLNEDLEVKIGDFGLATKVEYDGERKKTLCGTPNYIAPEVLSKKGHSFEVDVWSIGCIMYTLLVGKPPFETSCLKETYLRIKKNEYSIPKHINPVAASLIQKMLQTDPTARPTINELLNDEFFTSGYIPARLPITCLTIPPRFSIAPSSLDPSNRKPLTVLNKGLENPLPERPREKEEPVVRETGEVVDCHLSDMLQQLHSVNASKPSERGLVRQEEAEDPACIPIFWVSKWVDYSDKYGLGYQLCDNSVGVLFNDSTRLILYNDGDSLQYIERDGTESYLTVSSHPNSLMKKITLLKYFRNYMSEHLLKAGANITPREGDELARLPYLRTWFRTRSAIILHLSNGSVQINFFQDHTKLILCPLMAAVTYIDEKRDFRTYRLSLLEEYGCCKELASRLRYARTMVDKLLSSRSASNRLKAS

[11] = Mean residence time in ICR mouse plasma at 1 mg/kg, po administered as cassette dose by LC-MS/MS analysis; format: ADME, organism-based
[12] = target: Interleukin-1 receptor-associated kinase 1 (Homo sapiens) (UniProt P51617); assay: Binding affinity to partial length wild-type human […] (R194 to S712 residues) expressed in mammalian expression system assessed as unbound drug level at 300 nM by KINOMEscan assay
[13] = test system: Mus musculus; assay: Toxicity in C.B17/Icr scid/scid Jcl mouse assessed as body weight loss at 2.5 mg/kg, po qd administered for 14 days measured post last dose; format: organism-based; conditions: in vivo, 336 h
[14] = Toxicity in C.B17/Icr scid/scid Jcl mouse mouse; conditions: in vivo
[15] = target: T2, Cyclin-dependent kinase 19 (Homo sapiens, UniProt Q9BWU1); assay: Binding affinity to partial length wild-type human CDK19 (M1 to N360 residues) expressed in bacterial expression system by KINOMEscan assay
T2 sequence (Q9BWU1 whole entry, the tested form may be a part): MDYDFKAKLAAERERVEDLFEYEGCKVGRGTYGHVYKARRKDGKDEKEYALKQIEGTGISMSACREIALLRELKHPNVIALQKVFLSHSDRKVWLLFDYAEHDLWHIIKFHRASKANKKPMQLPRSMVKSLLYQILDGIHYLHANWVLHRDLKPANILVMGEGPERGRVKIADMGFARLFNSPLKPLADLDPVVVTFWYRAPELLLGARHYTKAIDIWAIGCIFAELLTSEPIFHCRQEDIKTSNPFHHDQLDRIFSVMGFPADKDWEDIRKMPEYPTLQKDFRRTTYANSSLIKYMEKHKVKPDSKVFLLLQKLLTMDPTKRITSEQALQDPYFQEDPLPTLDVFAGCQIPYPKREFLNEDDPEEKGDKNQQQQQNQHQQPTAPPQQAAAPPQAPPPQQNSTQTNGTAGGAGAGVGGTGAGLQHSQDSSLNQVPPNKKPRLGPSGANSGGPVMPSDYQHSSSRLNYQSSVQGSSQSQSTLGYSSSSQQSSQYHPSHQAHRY

[16] = target: RAC-alpha serine/threonine-protein kinase (Homo sapiens) (UniProt P31749); assay: Inhibition of Akt1 (unknown origin) at <1 uM using AKT1 substrate pretreated for 5 mins followed by substrate addition after 20 mins in presence of [gamma33P]ATP by scintillation counter method
[17] = target: MAP kinase-activated protein kinase 2 (Homo sapiens) (UniProt P49137); assay: Inhibition of MAPKAPK2 (unknown origin) at <1 uM using KKLNRTLSVA-NH2 as substrate preincubated for 5 mins followed by substrate addition measured after 10 mins in presence of [gamma33P]ATP by scintillation counter method
[18] = test system: RPMI-8226; assay: Growth inhibition of human RPMI8226 cells after 196 hrs by CellTiter-Glo luminescence assay; format: functional; conditions: RPMI-8226, 196 h
[19] = target: Ephrin type-A receptor 5 (Homo sapiens) (UniProt P54756); assay: Inhibition of EphA5 (unknown origin) at <1 uM using biotinylated poly[Glu:Tyr] (4:1) as substrate pretreated for 5 mins followed by substrate addition measured after 10 mins by Alphascreen assay
Sequence of Ephrin type-A receptor 5 (Homo sapiens) (P54756 whole entry): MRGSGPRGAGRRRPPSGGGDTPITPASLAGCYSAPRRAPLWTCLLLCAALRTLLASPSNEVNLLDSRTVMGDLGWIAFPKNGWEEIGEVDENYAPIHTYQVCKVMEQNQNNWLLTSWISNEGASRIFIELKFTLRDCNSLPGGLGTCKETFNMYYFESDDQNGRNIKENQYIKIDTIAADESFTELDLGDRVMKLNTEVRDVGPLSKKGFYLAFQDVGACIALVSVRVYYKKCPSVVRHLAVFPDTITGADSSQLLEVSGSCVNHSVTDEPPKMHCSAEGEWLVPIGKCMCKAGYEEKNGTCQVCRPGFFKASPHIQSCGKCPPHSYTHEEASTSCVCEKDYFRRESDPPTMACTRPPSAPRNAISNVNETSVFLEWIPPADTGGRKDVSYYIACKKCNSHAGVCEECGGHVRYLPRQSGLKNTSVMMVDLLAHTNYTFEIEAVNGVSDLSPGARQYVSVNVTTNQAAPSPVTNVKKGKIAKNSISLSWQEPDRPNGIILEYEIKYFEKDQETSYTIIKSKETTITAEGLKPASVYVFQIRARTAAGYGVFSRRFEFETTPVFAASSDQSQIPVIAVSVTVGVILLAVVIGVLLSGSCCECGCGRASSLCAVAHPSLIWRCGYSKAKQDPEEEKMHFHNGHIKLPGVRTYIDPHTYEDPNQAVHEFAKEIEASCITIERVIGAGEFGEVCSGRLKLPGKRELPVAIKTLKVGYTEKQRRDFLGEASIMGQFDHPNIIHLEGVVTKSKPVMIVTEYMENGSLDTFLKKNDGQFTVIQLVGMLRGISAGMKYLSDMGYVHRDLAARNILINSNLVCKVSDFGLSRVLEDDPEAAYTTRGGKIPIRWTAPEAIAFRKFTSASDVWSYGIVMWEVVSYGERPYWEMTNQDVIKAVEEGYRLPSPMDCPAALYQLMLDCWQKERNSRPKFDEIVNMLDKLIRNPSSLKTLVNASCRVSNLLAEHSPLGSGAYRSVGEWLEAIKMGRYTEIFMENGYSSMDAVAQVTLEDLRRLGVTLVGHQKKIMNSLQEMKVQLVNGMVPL

[20] = target: Cyclin-dependent kinase 8 (Homo sapiens, UniProt P49336); assay: Inhibition of CDK8 in human SW480 cells assessed as decrease in STAT1 phosphorylation at Ser727 after 2 hrs by Western blot method
[21] = target: Cyclin-C/Cyclin-dependent kinase 19 (Homo sapiens, UniProt Q9BWU1); assay: Inhibition of kinase tracer-236 binding to GST-tagged CDK19/CyclinC (unknown origin) after 60 mins by TR-FRET assay; format: protein-complex assay
[22] = target: T2, Cyclin-dependent kinase 19; conditions: 300 nM
[23] = target: Mitogen-activated protein kinase kinase kinase 5 (Homo sapiens) (UniProt Q99683); assay: Inhibition of ASK1 (unknown origin) at 1 uM using MBP as substrate preincubated for 5 mins followed by substrate addition measured after 60 mins in presence of [gamma33P]ATP by scintillation counter method relative to control
Sequence of Mitogen-activated protein kinase kinase kinase 5 (Homo sapiens) (Q99683 whole entry): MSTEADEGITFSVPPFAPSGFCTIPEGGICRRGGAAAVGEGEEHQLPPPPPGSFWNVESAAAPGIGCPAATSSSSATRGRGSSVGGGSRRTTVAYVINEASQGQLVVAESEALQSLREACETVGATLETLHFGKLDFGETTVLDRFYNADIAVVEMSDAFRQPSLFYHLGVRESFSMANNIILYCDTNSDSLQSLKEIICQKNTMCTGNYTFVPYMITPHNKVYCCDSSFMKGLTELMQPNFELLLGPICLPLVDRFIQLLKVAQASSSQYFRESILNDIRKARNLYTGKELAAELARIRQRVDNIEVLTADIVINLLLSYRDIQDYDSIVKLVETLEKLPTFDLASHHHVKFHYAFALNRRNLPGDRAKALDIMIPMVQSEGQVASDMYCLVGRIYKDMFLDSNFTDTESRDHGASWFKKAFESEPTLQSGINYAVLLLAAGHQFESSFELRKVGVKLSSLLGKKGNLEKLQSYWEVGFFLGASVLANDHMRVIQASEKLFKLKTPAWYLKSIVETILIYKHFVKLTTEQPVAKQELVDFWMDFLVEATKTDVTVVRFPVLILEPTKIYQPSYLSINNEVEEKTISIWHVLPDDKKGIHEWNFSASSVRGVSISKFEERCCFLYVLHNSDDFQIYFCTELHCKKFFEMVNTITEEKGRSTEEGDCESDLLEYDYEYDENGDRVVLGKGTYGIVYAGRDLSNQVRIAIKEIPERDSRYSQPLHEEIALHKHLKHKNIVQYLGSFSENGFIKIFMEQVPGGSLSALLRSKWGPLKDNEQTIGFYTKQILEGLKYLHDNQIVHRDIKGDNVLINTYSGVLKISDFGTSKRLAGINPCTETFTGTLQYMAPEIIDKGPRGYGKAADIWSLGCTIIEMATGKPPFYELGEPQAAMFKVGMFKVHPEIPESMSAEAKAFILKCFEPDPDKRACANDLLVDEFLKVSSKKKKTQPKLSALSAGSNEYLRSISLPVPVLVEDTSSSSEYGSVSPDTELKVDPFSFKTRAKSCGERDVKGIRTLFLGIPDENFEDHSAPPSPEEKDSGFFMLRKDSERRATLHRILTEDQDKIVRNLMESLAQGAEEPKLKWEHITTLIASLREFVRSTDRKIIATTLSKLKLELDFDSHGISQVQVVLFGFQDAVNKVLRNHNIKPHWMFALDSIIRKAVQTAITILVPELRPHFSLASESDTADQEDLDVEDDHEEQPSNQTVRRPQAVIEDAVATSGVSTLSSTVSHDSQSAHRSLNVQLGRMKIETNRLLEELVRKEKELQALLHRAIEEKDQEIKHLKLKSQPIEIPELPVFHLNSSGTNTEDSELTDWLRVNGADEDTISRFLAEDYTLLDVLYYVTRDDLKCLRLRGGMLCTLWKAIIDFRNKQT

[24] = target: High affinity nerve growth factor receptor (Homo sapiens) (UniProt P04629); assay: Inhibition of TrkA (unknown origin) at <1 uM
Sequence of High affinity nerve growth factor receptor (Homo sapiens) (P04629 33-796 limits assumed): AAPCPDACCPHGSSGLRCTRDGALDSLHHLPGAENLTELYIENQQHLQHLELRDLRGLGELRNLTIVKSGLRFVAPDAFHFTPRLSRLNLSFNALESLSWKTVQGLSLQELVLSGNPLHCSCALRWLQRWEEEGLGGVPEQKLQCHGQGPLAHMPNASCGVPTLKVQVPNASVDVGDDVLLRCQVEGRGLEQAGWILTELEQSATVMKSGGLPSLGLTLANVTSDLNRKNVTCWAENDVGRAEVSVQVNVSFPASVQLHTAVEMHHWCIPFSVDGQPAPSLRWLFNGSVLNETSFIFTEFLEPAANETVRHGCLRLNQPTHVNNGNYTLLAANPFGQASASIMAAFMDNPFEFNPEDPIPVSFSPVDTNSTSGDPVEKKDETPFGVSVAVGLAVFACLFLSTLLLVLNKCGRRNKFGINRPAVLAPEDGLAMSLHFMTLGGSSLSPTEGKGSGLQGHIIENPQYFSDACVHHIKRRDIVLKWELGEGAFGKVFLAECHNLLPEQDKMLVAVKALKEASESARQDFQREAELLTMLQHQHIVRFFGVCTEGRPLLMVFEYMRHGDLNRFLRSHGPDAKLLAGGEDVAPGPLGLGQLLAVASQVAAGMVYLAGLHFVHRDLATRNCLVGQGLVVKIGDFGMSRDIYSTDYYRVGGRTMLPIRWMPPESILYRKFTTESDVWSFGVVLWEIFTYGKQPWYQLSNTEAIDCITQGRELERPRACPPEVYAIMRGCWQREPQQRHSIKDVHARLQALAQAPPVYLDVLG

[25] = test system: SW480; assay: Growth inhibition of human SW480 cells after 196 hrs by CellTiter-Glo luminescence assay relative to control; format: functional
[26] = target: Phosphatidylinositol 4,5-bisphosphate 3-kinase catalytic subunit alpha isoform (Homo sapiens) (UniProt P42336); assay: Inhibition of PI3Kalpha (unknown origin) at <1 uM
[27] = test system: Mus musculus; assay: In vivo inhibition of CDK8-mediated STAT1 phosphorylation in human RPMI8226 cells xenografted in C.B17/Icr scid/scid Jcl mouse at 2.5 mg/kg, po bid administered for 14 days measured 2 to 8 hrs post last dose; format: functional, organism-based
[28] = target: Glycogen synthase kinase-3 beta (Homo sapiens) (UniProt P49841); assay: Inhibition of GSK3beta (unknown origin) at 1 uM using GSK3 substrate peptide preincubated for 5 mins followed by substrate addition measured after 30 mins in presence of [gamma33P]ATP by scintillation counter method relative to control
[29] = test system: Calu-1; assay: Growth inhibition of human Calu1 cells after 196 hrs by CellTiter-Glo luminescence assay; format: functional; conditions: Calu-1, 196 h
[30] = test system: MV4-11; assay: Growth inhibition of human MV411 cells after 196 hrs by CellTiter-Glo luminescence assay; format: functional; conditions: MV4-11, 196 h

T1 sequence (P50750 whole entry): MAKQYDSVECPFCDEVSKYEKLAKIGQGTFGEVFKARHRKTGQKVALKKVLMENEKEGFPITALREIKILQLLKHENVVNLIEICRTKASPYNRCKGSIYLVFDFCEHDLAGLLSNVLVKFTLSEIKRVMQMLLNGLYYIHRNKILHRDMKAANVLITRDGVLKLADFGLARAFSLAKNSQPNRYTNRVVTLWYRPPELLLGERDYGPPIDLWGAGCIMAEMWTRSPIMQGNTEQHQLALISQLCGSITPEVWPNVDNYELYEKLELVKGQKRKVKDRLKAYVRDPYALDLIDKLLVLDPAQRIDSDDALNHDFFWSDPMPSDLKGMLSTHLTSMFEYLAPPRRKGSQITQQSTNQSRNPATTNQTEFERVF

## COCCNC(=O)c1ccc(Oc2sc(C(N)=O)c3c2-c2sncc2CC3)cn1
[1]
  IC50: 270 nM
[2]
  inhibition: inactive
[3]
  inhibition: 83%
[4]
  inhibition: inactive
[5]
  inhibition: inactive
[6]
  inhibition: 28%
[7]
  inhibition: inactive
[8]
  Fu: 0.41%
[9]
  Fu: 0.48%
[10]
  inhibition: 4%
[11]
  MRT: 2.06 h
[12]
  Fu: 0.49%
[13]
  Activity: 10.2%
[14]
  MTD: 2.5 mg/kg
[15]
  Kd: 25 nM
[16]
  inhibition: inactive
[17]
  inhibition: inactive
[18]
  GI50: 2.5 nM
[19]
  inhibition: inactive
[20]
  EC50: 1.3 nM
[21]
  IC50: 0.99 nM
[22]
  Fu: 0.046%
[23]
  inhibition: 0%
[24]
  inhibition: inactive
[25]
  growth inhibition (GI): >50%
[26]
  inhibition: inactive
[27]
  inhibition: Active
[28]
  inhibition: 31%
[29]
  GI50: 0.43 nM
[30]
  GI50: 1.6 nM

Reference: ChEMBL document CHEMBL4028808, “Design and synthesis of selective CDK8/19 dual inhibitors: Discovery of 4,5-dihydrothieno[3',4':3,4]benzo[1,2-d]isothiazole derivatives” (Bioorg Med Chem, 2017)
